Values quoted from earlier work as cited in US20050186288A1, “Compositions and methods for the prophylaxis and treatment of aphthous ulcers and herpes simplex lesions” (Chiou Consulting Inc., priority 2002, published 2005).

Test system: herpes infection (wound or ulcer)
Conditions: salt alone

Substance | effect in treating herpes infection (wound or ulcer)
magnesium pentosan polysulfate | ineffective
zinc pentosan polysulfate | ineffective
